Experimental data as given in US20050112573A1, “Method of detecting toxic substance” (priority 2001, published 2005).

System: yeast genes (level of expressed mRNA)
Assay: DNA chip analysis of expressed mRNA of yeast genes after 2 h culture with a toxic chemical substance
Assay type: cell-based, Saccharomyces cerevisiae S288C
Details: for The level of expressed mRNA in the presence of chemical substance/ (ratio to absence of chemical substance): stress protein genes, DNA chip; for The level of expressed mRNA in the presence of chemical substance/ in its absence, gene YPR184W: yeast gene YPR184W
Description: Yeast (Saccharomyces cerevtisiae S288C (α SUC2mal mel gap2 CUP1)) were cultured at 25° C. on YPD medium (yeast extract 1%, polypepton 2%, glucose 2%). One of toxic chemical substances was added to the cell at logarithmic growth phase, and the cell was further cultured for two hours. Cell was cultured without any chemical substance in the same condition, and was used as control. Concentrations of the chemical substances were defined to inhibit the growth of the yeast but not lead to death.
After the completion of cultivation, the culture was centrifuged to collect the cells. To the cells, sodium acetate buffer (50 mM sodium acetate, 10 mM EDTA, 1% SDS) was added, and the mixture was shaken at 65° C. for five minutes, followed by returning to room temperature, and obtaining the supernatant, which procedure was repeated two times. To the supernatant, ½ amount of a solution of phenol/chloroform was added, and the mixture was centrifuged to give a supernatant, which was added with an equal amount of chloroform, and the mixture was centrifuged to give a supernatant. To the supernatant, an equal amount of isopropanol containing 0.3 M sodium acetate was added, and the mixture was allowed to stand at room temperature for 30 minutes, after which the mixture was centrifuged to give a sediment of the whole RNAs. Seventy % ethanol was added to the sediment, and the mixture was again centrifuged to give a sediment, which was then dried and dissolved in water. mRNA was isolated from the whole RNAs as followings. In view of the fact that a poly A chain is attached to the 3′ terminus of mRNA, a polynucleotide having a poly T structure which was immobilized on the surface of latex beads was used to trap the mRNA, and then the mRNA was washed and eluted with spine column (Oligotex-dT30<Super>mRNA Purification Kit, Takara). Reverse transcription of the mRNA was conducted with a reverse transcriptase (Super Script II Reverse Transcriptase; catalogue No. 18064-014, GibcoBRL) using fluorescence-labeled nucleotides to give cDNAs that were introduced with Cy3-dUTP or Cy5-dUTP during the reverse transcription.
The labeled cDNAs were dissolved in TE buffer (10 mM Tris-HCl/1 mM EDTA, pH8.0), and the solution was dropped on the DNA chip containing the whole genes of yeast (DNA Chip Research Inc. Japan) so that the cDNAs were hybridized on the DNA chip at 65° C. for over 12 hours. The fluoresces intensity of the DNA chip was read with a scanner, and the ratio relative to the fluorescence intensity resulting from the absence of chemical substance was estimated as the following, which is shown in Tables 1 to 9: [formula]
In the Tables, “Intensity” indicated in the rightmost column is a value of the level of expressed mRNA of each gene in control cells as divided by the average level of the expressions of the whole genes.

C[S+](C)[O-] [(15), dimethylsulfoxide]
The level of expressed mRNA in the presence of chemical substance/The level of expressed mRNA in the absence of chemical substance (yeast gene YMR314W): 1.2
The level of expressed mRNA in the presence of chemical substance/The level of expressed mRNA in the absence of chemical substance (yeast gene YNL006W): 0.7
The level of expressed mRNA in the presence of chemical substance/The level of expressed mRNA in the absence of chemical substance (yeast gene YNL007C): 0.8
The level of expressed mRNA in the presence of chemical substance/ (in its absence), gene YNL025C (yeast gene YNL025C, ratio of DNA chip fluorescence intensity to that without chemical substance): 1.4
The level of expressed mRNA in the presence of chemical substance/ (ratio to absence of chemical substance) (yeast gene YNL064C): 0.7
The level of expressed mRNA in the presence of chemical substance/ (ratio to absence), gene YNL073W (yeast gene YNL073W, mitochondria-located protein genes, 2 h culture with chemical): 0.7
The level of expressed mRNA in the presence of chemical substance/The level of expressed mRNA in the absence of chemical substance (yeast gene YNL093W): 0.6
The level of expressed mRNA in the presence of chemical substance/ (in its absence), gene YNL192W (yeast gene YNL192W, ratio of DNA chip fluorescence intensity to that without chemical substance): 2.1
The level of expressed mRNA in the presence of chemical substance/The level of expressed mRNA in the absence of chemical substance (yeast gene YNL333W): 1.0
The level of expressed mRNA in the presence of chemical substance/The level of expressed mRNA in the absence of chemical substance (yeast gene YNR010W): 0.8
The level of expressed mRNA in the presence of chemical substance/The level of expressed mRNA in the absence of chemical substance (yeast gene YNR069C): 1.0
The level of expressed mRNA in the presence of chemical substance/ (in its absence), gene YNR072W (yeast gene YNR072W, ratio of DNA chip fluorescence intensity to that without chemical substance): 1.8
The level of expressed mRNA in the presence of chemical substance/ (ratio to absence of chemical substance) (yeast gene YNR076W): 1.1
The level of expressed mRNA in the presence of chemical substance/The level of expressed mRNA in the absence of chemical substance (yeast gene YOL013C): 2.7
The level of expressed mRNA in the presence of chemical substance/ (ratio to absence), gene YOL096C (yeast gene YOL096C, mitochondria-located protein genes, 2 h culture with chemical): 1.0
The level of expressed mRNA in the presence of chemical substance/ (in its absence), gene YOL096C (yeast gene YOL096C, ratio of DNA chip fluorescence intensity to that without chemical substance): 1.0
The level of expressed mRNA in the presence of chemical substance/ (in its absence), gene YOL108C (yeast gene YOL108C, ratio of DNA chip fluorescence intensity to that without chemical substance): 1.5
The level of expressed mRNA in the presence of chemical substance/ (in its absence), gene YOL116W (yeast gene YOL116W, ratio of DNA chip fluorescence intensity to that without chemical substance): 0.7
The level of expressed mRNA in the presence of chemical substance/ (ratio to absence of chemical substance) (yeast gene YOL161C): 1.1
The level of expressed mRNA in the presence of chemical substance/The level of expressed mRNA in the absence of chemical substance (yeast gene YOL164W): 1.0
The level of expressed mRNA in the presence of chemical substance/ (ratio to absence of chemical substance) (yeast gene YOR008C): 0.9
The level of expressed mRNA in the presence of chemical substance/ (ratio to absence of chemical substance) (yeast gene YOR009W): 0.6
The level of expressed mRNA in the presence of chemical substance/ (ratio to absence of chemical substance) (yeast gene YOR010C): 0.6
The level of expressed mRNA in the presence of chemical substance/The level of expressed mRNA in the absence of chemical substance (yeast gene YOR036W): 1.2
The level of expressed mRNA in the presence of chemical substance/ (in its absence), gene YOR103C (yeast gene YOR103C, ratio of DNA chip fluorescence intensity to that without chemical substance): 1.4
The level of expressed mRNA in the presence of chemical substance/The level of expressed mRNA in the absence of chemical substance (yeast gene YOR117W): 1.4
The level of expressed mRNA in the presence of chemical substance/The level of expressed mRNA in the absence of chemical substance (yeast gene YOR124C): 1.3
The level of expressed mRNA in the presence of chemical substance/The level of expressed mRNA in the absence of chemical substance (yeast gene YOR132W): 1.5
The level of expressed mRNA in the presence of chemical substance/The level of expressed mRNA in the absence of chemical substance (yeast gene YOR157C): 1.9
The level of expressed mRNA in the presence of chemical substance/ (in its absence), gene YOR180C (yeast gene YOR180C, ratio of DNA chip fluorescence intensity to that without chemical substance): 1.1
The level of expressed mRNA in the presence of chemical substance/The level of expressed mRNA in the absence of chemical substance (yeast gene YOR181W): 3.4
The level of expressed mRNA in the presence of chemical substance/The level of expressed mRNA in the absence of chemical substance (yeast gene YOR185C): 1.0
The level of expressed mRNA in the presence of chemical substance/ (in its absence), gene YOR251C (yeast gene YOR251C, ratio of DNA chip fluorescence intensity to that without chemical substance): 0.6
The level of expressed mRNA in the presence of chemical substance/The level of expressed mRNA in the absence of chemical substance (yeast gene YOR259C): 1.3
The level of expressed mRNA in the presence of chemical substance/The level of expressed mRNA in the absence of chemical substance (yeast gene YOR261C): 1.3
The level of expressed mRNA in the presence of chemical substance/The level of expressed mRNA in the absence of chemical substance (yeast gene YOR288C): 1.8
The level of expressed mRNA in the presence of chemical substance/ (ratio to absence), gene YOR316C (yeast gene YOR316C, mitochondria-located protein genes, 2 h culture with chemical): 1.5
The level of expressed mRNA in the presence of chemical substance/ (in its absence), gene YOR348C (yeast gene YOR348C, ratio of DNA chip fluorescence intensity to that without chemical substance): 1.6
The level of expressed mRNA in the presence of chemical substance/The level of expressed mRNA in the absence of chemical substance (yeast gene YOR355W): 3.2
The level of expressed mRNA in the presence of chemical substance/ (in its absence), gene YOR363C (yeast gene YOR363C, ratio of DNA chip fluorescence intensity to that without chemical substance): 1.1
The level of expressed mRNA in the presence of chemical substance/The level of expressed mRNA in the absence of chemical substance (yeast gene YOR383C): 1.1
The level of expressed mRNA in the presence of chemical substance/ (ratio to absence), gene YPL040C (yeast gene YPL040C, mitochondria-located protein genes, 2 h culture with chemical): 1.1
The level of expressed mRNA in the presence of chemical substance/ (ratio to absence of chemical substance) (yeast gene YPL059W): 1.0
The level of expressed mRNA in the presence of chemical substance/The level of expressed mRNA in the absence of chemical substance (yeast gene YPL089C): 2.6
The level of expressed mRNA in the presence of chemical substance/The level of expressed mRNA in the absence of chemical substance (yeast gene YPL109C): 1.3
The level of expressed mRNA in the presence of chemical substance/ (ratio to absence), gene YPL134C (yeast gene YPL134C, mitochondria-located protein genes, 2 h culture with chemical): 1.1
The level of expressed mRNA in the presence of chemical substance/ (ratio to absence of chemical substance) (yeast gene YPL140C): 0.7
The level of expressed mRNA in the presence of chemical substance/ (in its absence), gene YPL148C (yeast gene YPL148C, ratio of DNA chip fluorescence intensity to that without chemical substance): 0.6
The level of expressed mRNA in the presence of chemical substance/The level of expressed mRNA in the absence of chemical substance (yeast gene YPL149W): 0.8
The level of expressed mRNA in the presence of chemical substance/The level of expressed mRNA in the absence of chemical substance (yeast gene YPL154C): 4.0
The level of expressed mRNA in the presence of chemical substance/ (ratio to absence of chemical substance) (yeast gene YPL194W): 1.4
The level of expressed mRNA in the presence of chemical substance/ (ratio to absence of chemical substance) (yeast gene YPR005C): 2.7
The level of expressed mRNA in the presence of chemical substance/The level of expressed mRNA in the absence of chemical substance (yeast gene YPR103W): 1.0
The level of expressed mRNA in the presence of chemical substance/The level of expressed mRNA in the absence of chemical substance (yeast gene YPR108W): 1.3
The level of expressed mRNA in the presence of chemical substance/ (in its absence), gene YPR165W (yeast gene YPR165W, ratio of DNA chip fluorescence intensity to that without chemical substance): 0.9
The level of expressed mRNA in the presence of chemical substance/ in its absence, gene YPR184W (energy system protein genes, 2 h culture with the chemical, ratio to control without chemical): 1.5
The level of expressed mRNA in the presence of chemical substance/ in its absence, gene YPR184W (ratio of DNA chip fluorescence intensity to that without chemical substance): 1.5
